Measured values published in patent EP2257297B1, “COMPOUNDS FOR USE IN THE TREATMENT OF ACNE, SEBORRHOEA AND SEBHORROEIC DERMATITIS, OR FOR REDUCING SEBUM SECRETION” (priority 2008, dated 2009).

What follows are compounds tested against T1, human MC5R (Homo sapiens, UniProt P33032) (assay: Human MC5R radioligand binding assay ([125I] NDP-MSH displacement, hMC5R membranes)). Conditions: hMC5R assay as in Example 102; compounds tested as trifluoroacetate or hydrochloride salts, or as free base.
T1 construct: purchased Perkin Elmer RBXMC5M400UA
Summary of the method: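 Bound ligand collected by filtration on PEI-soaked GF/A filters and counted. Data fitted to a single-site competition model with fixed Hill coefficient to give EC50.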

T1 sequence (P33032 whole entry): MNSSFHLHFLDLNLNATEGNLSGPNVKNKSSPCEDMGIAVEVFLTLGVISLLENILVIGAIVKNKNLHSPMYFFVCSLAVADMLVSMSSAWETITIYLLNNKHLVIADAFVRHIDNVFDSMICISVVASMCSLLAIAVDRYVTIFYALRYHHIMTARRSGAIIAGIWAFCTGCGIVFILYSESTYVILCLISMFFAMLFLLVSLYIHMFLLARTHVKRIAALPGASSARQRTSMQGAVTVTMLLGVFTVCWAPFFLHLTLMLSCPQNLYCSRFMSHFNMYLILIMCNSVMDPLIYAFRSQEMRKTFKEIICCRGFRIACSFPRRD

IC50	SMILES
< 10000 nM	NCCCC[C@@H]1N[C@H](CNC(=O)c2cccc3ccccc23)CCN(Cc2ccc3ccccc3c2)C1=O [Compound 124, N-(((3S,5S)-3-(4-aminobutyl)-1-(naphthalen-2-ylmethyl)-2-oxo-1,4-diazepan-5-yl)methyl)-1-naphthamide]
< 1000 nM	CN1[C@H](CNC(=O)c2ccc3cc(Br)ccc3c2)CCN(CC(c2ccccc2)c2ccccc2)C(=O)[C@@H]1CCCN [Compound 62, N-(((3S,5S)-3-(3-aminopropyl)-1-(2,2-diphenylethyl)-4-methyl-2-oxo-1,4-diazepan-5-yl)methyl)-6-bromo-2-naphthamide]
< 10000 nM	NCCC[C@@H]1N[C@H](CNC(=O)C2CCN(c3ccccc3)C2=O)CCN(CC(c2ccccc2)c2ccccc2)C1=O (stereo partly drawn) [Compound 239, N-(((3S,5S)-3-(3-aminopropyl)-1-(2,2-diphenylethyl)-2-oxo-1,4-diazepan-5-yl)methyl)-2-oxo-1-phenylpyrrolidine-3-carboxamide]
< 1000 nM	O=C(NCC[C@@H]1CCN(CC(c2ccccc2)c2ccccc2)C(=O)[C@H](CCN2CCCCC2)N1)c1ccc(Cl)c(Cl)c1 [Compound 312, 3,4-dichloro-N-(2-((3S,5R)-1-(2,2-diphenylethyl)-2-oxo-3-(2-(piperidin-1-yl)ethyl)-1,4-diazepan-5-yl)ethyl)benzamide]
< 1000 nM	N=C(N)NCCC[C@@H]1N[C@H](CNC(=O)[C@@H]2COc3ccccc3O2)CCN(CC(c2ccccc2)c2ccccc2)C1=O [Compound 165, (S)-N-(((3S,5S)-1-(2,2-diphenylethyl)-3-(3-guanidinopropyl)-2-oxo-1,4-diazepan-5-yl)methyl)-2,3-dihydrobenzo[b][1,4]dioxine-2-carboxamide]
< 100 nM	Cc1ccc(/C=C/C(=O)NC[C@@H]2CCN(CC(c3ccccc3)c3ccccc3)C(=O)[C@H](CCCNC(=N)N)N2)cc1 [Compound 171, (E)-N-(((3S,5S)-1-(2,2-diphenylethyl)-3-(3-guanidinopropyl)-2-oxo-1,4-diazepan-5-yl)methyl)-3-p-tolylacrylamide]
< 100 nM	COc1c(C(=O)NC[C@@H]2CCN(CC(c3ccccc3)c3ccccc3)C(=O)[C@H](CCCNC(=N)N)N2)ccc2ccccc12 [Compound 156, N-(((3S,5S)-1-(2,2-diphenylethyl)-3-(3-guanidinopropyl)-2-oxo-1,4-diazepan-5-yl)methyl)-1-methoxy-2-naphthamide]
< 1000 nM	NC[C@@H]1N[C@H](CNC(=O)c2ccc3ccccc3c2)CCN(Cc2cc(Cl)cc(Cl)c2)C1=O [Compound 365, N-(((3S,5S)-3-(aminomethyl)-1-(3,5-dichlorobenzyl)-2-oxo-1,4-diazepan-5-yl)methyl)-2-naphthamide]
< 10 nM	O=C(/C=C/c1ccc(F)cc1)NC[C@@H]1CCN(CC(c2ccccc2)c2ccccc2)C(=O)[C@H](CCCNC2CCCCC2)N1 [Compound 231, (E)-N-(((3S,5S)-3-(3-(cyclohexylamino)propyl)-1-(2,2-diphenylethyl)-2-oxo-1,4-diazepan-5-yl)methyl)-3-(4-fluorophenyl)acrylamide]
< 100 nM	CC(C)NCCC[C@@H]1N[C@H](CNC(=O)c2ccc3ccccc3c2)CCN(CC(c2ccccc2)c2ccccc2)C1=O [Compound 65, N-(((3S,5S)-1-(2,2-diphenylethyl)-3-(3-(isopropylamino)propyl)-2-oxo-1,4-diazepan-5-yl)methyl)-2-naphthamide]
< 10000 nM	N=C(N)NCCC[C@@H]1N[C@H](CNC(=O)c2ccc3[nH]cnc3c2)CCN(CC(c2ccccc2)c2ccccc2)C1=O [Compound 149, N-(((3S,5S)-1-(2,2-diphenylethyl)-3-(3-guanidinopropyl)-2-oxo-1,4-diazepan-5-yl)methyl)-1H-benzo[d]imidazole-5-carboxamide]
< 1000 nM	NCCCC[C@@H]1N[C@H](CNC(=O)c2ccc3ccccc3c2)CCN(Cc2ccc3ccccc3c2)C1=O [Compound 122, N-(((3S,5S)-3-(4-aminobutyl)-1-(naphthalen-2-ylmethyl)-2-oxo-1,4-diazepan-5-yl)methyl)-2-naphthamide]
< 100 nM	CCN(CC)CC[C@@H]1N[C@H](CNC(=O)/C=C/c2ccc(Cl)cc2)CCN(CC(c2ccccc2)c2ccccc2)C1=O [Compound 378, (E)-3-(4-chlorophenyl)-N-(((3S,5S)-3-(2-(diethylamino)ethyl)-1-(2,2-diphenylethyl)-2-oxo-1,4-diazepan-5-yl)methyl)acrylamide]
< 100 nM	O=C(/C=C/c1ccc(Cl)cc1)NC[C@@H]1CCN(Cc2cc(Cl)cc(Cl)c2)C(=O)[C@H](CN2CCCCC2)N1 [Compound 368, (E)-3-(4-chlorophenyl)-N-(((3S,5S)-1-(3,5-dichlorobenzyl)-2-oxo-3-(piperidin-1-ylmethyl)-1,4-diazepan-5-yl)methyl)acrylamide]
< 10000 nM	CCC(CC)CN1CC[C@@H](CNC(=O)c2ccc(C)c(Cl)c2)N[C@@H](CCN)C1=O [Compound 354, N-(((3S,5S)-3-(2-aminoethyl)-1-(2-ethylbutyl)-2-oxo-1,4-diazepan-5-yl)methyl)-3-chloro-4-methylbenzamide]
< 1000 nM	CN1[C@H](CNC(=O)/C=C/c2ccc(F)cc2)CCN(CC(c2ccccc2)c2ccccc2)C(=O)[C@@H]1CCCN [Compound 258, (E)-N-(((3S,5S)-3-(3-aminopropyl)-1-(2,2-diphenylethyl)-4-methyl-2-oxo-1,4-diazepan-5-yl)methyl)-3-(4-fluorophenyl)acrylamide]
< 10000 nM	N=C(N)NCCC[C@@H]1N[C@H](CNS(=O)(=O)c2ccc3ccccc3c2)CCN(CC(c2ccccc2)c2ccccc2)C1=O [Compound 50, N-(((3S,5S)-1-(2,2-diphenylethyl)-3-(3-guanidinopropyl)-2-oxo-1,4-diazepan-5-yl)methyl)-2-naphthalene-2-sulfonamide]
< 1000 nM	N=C(N)NCCC[C@@H]1N[C@H](CNC(=O)Cc2ccc3ccccc3c2)CCN(CC(c2ccccc2)c2ccccc2)C1=O [Compound 110, N-(((3S,5S)-1-(2,2-diphenylethyl)-3-(3-guanidinopropyl)-2-oxo-1,4-diazepan-5-yl)methyl)-2-(naphthalen-2-yl)acetamide]
< 1000 nM	N=C(N)NCCC[C@@H]1N[C@H](CNC(=O)c2cc(Cl)ccc2Cl)CCN(CC(c2ccccc2)c2ccccc2)C1=O [Compound 137, 2,5-dichloro-N-(((3S,5S)-1-(2,2-diphenylethyl)-3-(3-guanidinopropyl)-2-oxo-1,4-diazepan-5-yl)methyl)benzamide]
< 100 nM	CCC(CN1CCC(CNC(=O)c2ccc3cc(Cl)ccc3c2)N[C@@H](C2CCNCC2)C1=O)c1ccccc1 (stereo partly drawn) [Compound 472, (S)-6-chloro-N-((2-oxo-1-(2-phenylbutyl)-3-(piperidin-4-yl)-1,4-diazepan-5-yl)methyl)-2-naphthamide]
< 1000 nM	N=C(N)NCCC[C@@H]1N[C@H](CNC(=O)/C=C/c2cccc(C(F)(F)F)c2)CCN(CC(c2ccccc2)c2ccccc2)C1=O [Compound 192, (E)-N-(((3S,5S)-1-(2,2-diphenylethyl)-3-(3-guanidinopropyl)-2-oxo-1,4-diazepan-5-yl)methyl)-3-(3-(trifluoromethyl)phenyl)acrylamide]
< 1000 nM	N=C(N)NCCC[C@@H]1N[C@H](CNC(=O)c2ccccc2)CCN(CC(c2ccccc2)c2ccccc2)C1=O [Compound 115, N-(((3S,5S)-1-(2,2-diphenylethyl)-3-(3-guanidinopropyl)-2-oxo-1,4-diazepan-5-yl)methyl)benzamide]
< 1000 nM	Cc1cc(C)n(-c2ccc(C(=O)NC[C@@H]3CCN(CC(c4ccccc4)c4ccccc4)C(=O)[C@H](CCCN)N3)cc2)n1 [Compound 243, N-(((3S,5S)-3-(3-aminopropyl)-1-(2,2-diphenylethyl)-2-oxo-1,4-diazepan-5-yl)methyl)-4-(3,5-dimethyl-1H-pyrazol-1-yl)benzamide]
< 10000 nM	NCCCC[C@@H]1N[C@H](CNC(=O)Cc2ccc3ccccc3c2)CCN(Cc2ccc3ccccc3c2)C1=O [Compound 123, N-(((3S,5S)-3-(4-aminobutyl)-1-(naphthalen-2-ylmethyl)-2-oxo-1,4-diazepan-5-yl)methyl)-2-(naphthalen-2-yl)acetamide]
< 10000 nM	N=C(N)NCCC[C@@H]1N[C@H](CNC(=O)C2CCCC2)CCN(CC(c2ccccc2)c2ccccc2)C1=O [Compound 151, N-(((3S,5S)-1-(2,2-diphenylethyl)-3-(3-guanidinopropyl)-2-oxo-1,4-diazepan-5-yl)methyl)cyclopentanecarboxamide]
< 1000 nM	N=C(N)NCCC[C@@H]1N[C@H](CNC(=O)CCc2ccccc2)CCN(CC(c2ccccc2)c2ccccc2)C1=O [Compound 143, N-(((3S,5S)-1-(2,2-diphenylethyl)-3-(3-guanidinopropyl)-2-oxo-1,4-diazepan-5-yl)methyl)-3-phenylpropanamide]
< 100 nM	NCC[C@@H]1N[C@H](CNC(=O)/C=C/c2ccc(Cl)cc2)CCN(CC(c2ccccc2)c2ccccc2)C1=O [Compound 283, (E)-N-(((3S,5S)-3-(2-aminoethyl)-1-(2,2-diphenylethyl)-2-oxo-1,4-diazepan-5-yl)methyl)-3-(4-chlorophenyl)acrylamide]

Same assay, conditions: hMC5R binding assay as in Example 102; compounds tested as trifluoroacetate or hydrochloride salts, or as free base

IC50	SMILES
< 10000 nM	CC[C@H](CN1CC[C@H](CNC(=O)c2ccc3cc(Cl)ccc3c2)N[C@H](CCN2CCCCC2)C1=O)c1ccccc1 [Compound 585, 6-chloro-N-(((3R,5R)-2-oxo-1-((S)-2-phenylbutyl)-3-(2-(piperidin-1-yl)ethyl)-1,4-diazepan-5-yl)methyl)-2-naphthamide]
< 100 nM	CC[C@H](CN1CC[C@H](CNC(=O)c2ccc3cc(Cl)ccc3c2)N[C@@H](CCN2CCCCC2)C1=O)c1ccccc1 [Compound 581, 6-chloro-N-(((3S,5R)-2-oxo-1-((S)-2-phenylbutyl)-3-(2-(piperidin-1-yl)ethyl)-1,4-diazepan-5-yl)methyl)-2-naphthamide]

SMILES	IC50
CC[C@H](CN1CC[C@@H](CNC(=O)c2ccc3cc(Cl)ccc3c2)N[C@@H](CCN2CCCCC2)C1=O)c1ccccc1 [Compound 569, 6-chloro-N-(([5-^13C,4-^15N](3S,5S)-2-oxo-1-((S)-2-phenylbutyl)-3-(2-(piperidin-1-yl)ethyl)-1,4-diazepan-5-yl)[^13C]methyl)-2-naphthamide]	< 10 nM
